Laboratory results taken from article PMC5736175, “Nicotinic alpha 7 receptor agonists EVP-6124 and BMS-933043, attenuate scopolamine-induced deficits in visuo-spatial paired associates learning” (PLoS ONE, 2017).
Several values for one entry are separate records, joined by “and”; a condition that tells them apart may be missing. Equal entries are not always repeated. Entries after “also recorded” stand apart in the source; their conditions may differ.

Experiments:
[1] = Plasma pharmacokinetics in satellite animals (LC-MS/MS), 60 min after i.m. dose; settings: for concentration at 60 min: cynomolgus monkey, in vivo, nM total compound in plasma from satellite animals
Method: For all compounds, plasma pharmacokinetic studies were conducted in a separate cohort of cynomolgus monkeys (N = 2–3 subjects per dose) before beginning vsPAL testing to help guide dose selection. Blood samples were obtained with the animals awake and sitting in a primate chair.
(§1) Plasma concentrations of test compounds were determined using LC-MS/MS assays. In brief, 50 μL plasma and sample containing compounds was extracted by protein precipitation method with 150 μL acetonitrile containing an internal standard. A 5 μL sample of supernatant was injected into the LC-MS/MS system. Analytes were separated by reversed phase chromatography and detection of each analyte was achieved through selected reaction monitoring mode of mass spectrometry. Samples were quantified by calculated peak area ratio of analyte and internal standard against a calibration curve.

[2] = Plasma concentration in vsPAL subjects immediately after completion of testing (LC-MS/MS); settings: for concentration at 69.8 min: cynomolgus monkey, in vivo
Method: For all compounds, plasma pharmacokinetic studies were conducted in a separate cohort of cynomolgus monkeys (N = 2–3 subjects per dose) before beginning vsPAL testing to help guide dose selection. Blood samples were obtained with the animals awake and sitting in a primate chair. For most test sessions with BMS-933043 and EVP-6124, plasma samples were also taken from a subset of vsPAL subjects (N = 4–5) immediately after completion of testing (mean (SD) sample collection time = 69.8 (9.8) min post injection).
as §1

[3] = system: scopolamine-treated cynomolgus monkeys; assay: Scopolamine-induced impairment of vsPAL task performance, treatment + scopolamine; type: in vivo, cynomolgus monkeys (Macaca Fasicularis); settings: for Cohen's d / effect r: eventual accuracy, 4-stimuli; for mean (cohen's d calculations): eventual correct; for % Completion / Average Response Latency (Avg Rsp Lat) / Eventual Correct, 2 Stimuli / Eventual Correct, 3 Stimuli / Eventual Correct, 4 Stimuli / Eventual Correct, Overall Mean % Correct / Initial Correct, 3 Stimuli / Initial Correct, 4 Stimuli / Initial Correct, Overall Mean % Correct / Initial correct, 2 Stimuli: im + Scopolamine
[4] = 0.03 mg/kg i.m., individual subjects
[5] = 0.10 mg/kg i.m., individual subjects
[6] = 0.30 mg/kg i.m., individual subjects
[7] = 1.00 mg/kg i.m., individual subjects
[8] = 0.03 mg/kg + scopolamine vs vehicle+scopolamine
[9] = 0.1 mg/kg + scopolamine vs vehicle+scopolamine
[10] = 0.3 mg/kg + scopolamine vs vehicle+scopolamine
[11] = BMS-933043 0.03 mg/kg, group MEAN
[12] = BMS-933043 0.03 mg/kg, individual animals, 0.03 mg/kg
[13] = BMS-933043 0.1 mg/kg, group MEAN

c1cn(-c2cc(NC3=NC[C@@]4(CN5CCC4CC5)O3)ncn2)cn1 [BMS-933043, (2R)-N-(6-(1H-imidazol-1-yl)-4-pyrimidinyl)-4'H-spiro[4-azabicyclo[2.2.2]octane-2,5'-[1, 3]oxazol]-2'-amine]
nM total compound in plasma from satellite animals, 60 min [1, 4]: 16.6 nM and 18.4 nM
nM total compound in plasma from satellite animals, 60 min [1, 5]: 60.9 nM and 70.1 nM
nM total compound in plasma from satellite animals, 60 min [1, 6]: 145.0 nM and 280.0 nM and 133.0 nM
nM total compound in plasma from satellite animals, 60 min [1, 7]: 1100.0 nM
concentration at 60 min ([1]; 0.03 mg/kg, 0.03 mg/kg i.m., individual subjects): 20.1 nM
concentration at 60 min ([1]; 0.03 mg/kg, 0.03 mg/kg i.m., mean): 18.4 nM
concentration at 60 min ([1]; 0.1 mg/kg, 0.10 mg/kg i.m., individual subjects): 66.6 nM
concentration at 60 min ([1]; 0.1 mg/kg, 0.10 mg/kg i.m., mean): 65.9 nM
concentration at 60 min ([1]; 0.3 mg/kg, 0.30 mg/kg i.m., mean): 186 nM
concentration at 60 min ([1]; 1 mg/kg, 1.00 mg/kg i.m., individual subjects): 739 nM
concentration at 60 min ([1]; 1 mg/kg, 1.00 mg/kg i.m., mean): 920 nM
nM total compound in plasma post session [2, 4]: 14.6 nM and 11.9 nM and 13.1 nM
nM total compound in plasma post session [2, 5]: 37.9 nM and 51.3 nM and 45.6 nM
nM total compound in plasma post session [2, 6]: 156 nM and 134 nM and 143 nM
nM total compound in plasma post session [2, 7]: 414 nM and 530 nM and 413 nM
concentration at 69.8 min ([2]; 0.03 mg/kg, nM total compound in plasma post session, 0.03 mg/kg i.m., individual subjects): 13.4 nM
concentration at 69.8 min ([2]; 0.03 mg/kg, nM total compound in plasma post session, 0.03 mg/kg i.m., mean 69.8 min post injection, group mean): 13.3 nM
concentration at 69.8 min ([2]; 0.1 mg/kg, nM total compound in plasma post session, 0.10 mg/kg i.m., individual subjects): 56.3 nM
concentration at 69.8 min ([2]; 0.1 mg/kg, nM total compound in plasma post session, 0.10 mg/kg i.m., mean 69.8 min post injection, group mean): 47.8 nM
concentration at 69.8 min ([2]; 0.3 mg/kg, nM total compound in plasma post session, 0.30 mg/kg i.m., individual subjects): 125 nM
concentration at 69.8 min ([2]; 0.3 mg/kg, nM total compound in plasma post session, 0.30 mg/kg i.m., mean 69.8 min post injection, group mean): 140 nM
concentration at 69.8 min ([2]; 1 mg/kg, nM total compound in plasma post session, 1.00 mg/kg i.m., individual subjects): 614 nM
concentration at 69.8 min ([2]; 1 mg/kg, nM total compound in plasma post session, 1.00 mg/kg i.m., mean 69.8 min post injection, group mean): 493 nM
concentration at 69.8 min ([2]; 1 mg/kg, plasma concentration at which efficacy was lost, scopolamine vsPAL model): 493 nM
concentration at 69.8 min ([2]; mean plasma concentration at which improved eventual accuracy was observed, experimental subjects on completion of behavioral testing, efficacious doses): 13.3 to 140 nM
Cohen's d [3, 8]: 0.64
effect r [3, 8]: 0.306
Cohen's d ([3]; 0.03 mg/kg + scopolamine vs vehicle+scopolamine, listed as 933043): 0.643
Cohen's d [3, 9]: 0.73
effect r [3, 9]: 0.343
Cohen's d ([3]; 0.1 mg/kg + scopolamine vs vehicle+scopolamine, listed as 933043): 0.7311
Cohen's d [3, 10]: 1.2
effect r [3, 10]: 0.51
effect on scopolamine-induced impairment of eventual accuracy ([3]; 0.03, 0.1 and 0.3 mg/kg i.m., 4-stimuli condition): significantly ameliorated; also recorded: significantly reversed
mean (cohen's d calculations) ([3]; 0.03 mpk + scop, 4-stimuli condition): 81.7
mean (cohen's d calculations) ([3]; 0.1 mpk + scop, 4-stimuli condition): 81.4
mean (cohen's d calculations) ([3]; 0.3 mpk + scop, 4-stimuli condition): 90.0
% Completion [3, 11]: 80.9%
Average Response Latency (Avg Rsp Lat) [3, 11]: 2008.1 ms
Eventual Correct, 2 Stimuli [3, 11]: 100.0%
Eventual Correct, 3 Stimuli [3, 11]: 88.6%
Eventual Correct, 4 Stimuli [3, 11]: 81.7%
Eventual Correct, Overall Mean % Correct [3, 11]: 89.8%
Initial Correct, 3 Stimuli [3, 11]: 58.6%
Initial Correct, 4 Stimuli [3, 11]: 38.3%
Initial Correct, Overall Mean % Correct [3, 11]: 63.6%
Initial correct, 2 Stimuli [3, 11]: 90.0%
Eventual Correct, 2 Stimuli ([3]; BMS-933043 0.03 mg/kg, individual animals): 100.0%
% Completion [3, 12]: 81.8% and 100.0% and 81.3% and 32.1% and 72.4% and 98.5%
Average Response Latency (Avg Rsp Lat) [3, 12]: 2181.5 ms and 1558.2 ms and 1198.4 ms and 2787.4 ms and 1505.0 ms and 2151.4 ms and 2675.1 ms
Eventual Correct, 3 Stimuli [3, 12]: 90.0% and 100.0% and 50.0%
Eventual Correct, 4 Stimuli [3, 12]: 100.0% and 90.0% and 40.0% and 80.0%
Eventual Correct, Overall Mean % Correct [3, 12]: 96.7% and 76.7% and 100.0% and 75.0% and 90.0% and 93.3%
Initial Correct, 3 Stimuli [3, 12]: 70.0% and 60.0% and 40.0% and 80.0% and 20.0%
Initial Correct, 4 Stimuli [3, 12]: 40.0% and 10.0% and 80.0% and 20.0%
Initial Correct, Overall Mean % Correct [3, 12]: 70.0% and 66.7% and 56.7% and 76.7% and 65.0% and 40.0%
Initial correct, 2 Stimuli [3, 12]: 100.0% and 90.0% and 80.0%
% Completion [3, 13]: 84.8%
Average Response Latency (Avg Rsp Lat) [3, 13]: 1958.7 ms
Eventual Correct, 2 Stimuli [3, 13]: 100.0%
Eventual Correct, 3 Stimuli [3, 13]: 98.6%
Eventual Correct, 4 Stimuli [3, 13]: 81.4%
Eventual Correct, Overall Mean % Correct [3, 13]: 93.3%
Initial Correct, 3 Stimuli [3, 13]: 75.7%
Initial Correct, 4 Stimuli [3, 13]: 35.7%
Initial Correct, Overall Mean % Correct [3, 13]: 66.7%
Initial correct, 2 Stimuli [3, 13]: 88.6%
Eventual Correct, 2 Stimuli ([3]; BMS-933043 0.1 mg/kg, individual animals): 100.0%
